According to patent US10745735B2 (priority 2013, dated 2020):

Tests used:
BL21 E. coli [1] = test: Dual metabolic labeling (HPG and KDO-azide) of BL21 E. coli, fluorescence and bead capture; assay type: cell-based; conditions: HPG and KDO-azide together
Method: FIG. 10: Dual metabolic label incorporation, fluorescence labeling and capture of live lab strain E. coli. […] The cells were first reacted with biotin-azide to biotinylate surface proteins, then reacted with Alexa488-alkyne to fluorescently label LPS molecules. Surface biotinylation was either fluorescently detected after incubation with Cy3-streptavidin (top panels), or bacteria were captured after incubation with streptavidin-coated magnetic beads (bottom panels). Fluorescence levels are adjusted above background detected for cells grown in the presence of KDO and methionine.
Beyond identification of living cells, this method has the potential to discriminate between gram positive and gram negative bacteria as functionalized KDO will only be incorporated into LPS of gram negative cells, whereas HPG should not discriminate between the two. This method may also be used to capture living bacteria via incorporation of HPG, and fluorescent identification of gram negative strains via incorporation of KDO-azide. […] Methionine biosynthesis was then inhibited and either methionine or HPG were added to the cultures and incubated for 16 hours. Cells were reacted with biotin-azide to label surface proteins containing HPG, then reacted with Alexa488-alkyne to fluorescently label LPS containing KDO-azide. […]

[2] = system: VTEC strain of serotype O45:H2; test: Metabolic labeling of VTEC O45:H2 with KDO-alkyne, Alexa488-azide, fluorescence microscopy; assay type: cell-based, E. coli; conditions: overnight culture
Source text: Metabolic labeling of VTEC was also investigated to determine if this labeling strategy could be applied to the detection of live pathogenic bacteria. […] Therefore, targeting LPS of bacteria with a KDO analogue can also be used to identify contamination by living pathogenic strains of E. coli.

[3] = system: verotoxin producing E. coli (VTEC) cells; assay type: cell-based
[4] = system: Listeria innocua strains HPB 34 and 118; test: Metabolic labeling of Listeria innocua with HPG, Alexa488-azide, fluorescence microscopy; assay type: cell-based; conditions: HPG 100 μg/ml, HTM minimal medium, 16 h at 30° C.
Method: In addition to gram negative E. coli strains, gram positive Listeria strains were investigated to probe the diversity of bacteria susceptible to this labeling strategy. Two strains of Listeria innocua were cultured in HTM minimal medium containing the methionine biosynthesis inhibition amino acids, in the presence of methionine (100 μg/ml) or HPG (100 μg/ml) for 16 h at 30° C., then reacted with Alexa488-azide as described earlier.

BL21 E. coli [5] = test: Capture of HPG-labeled, biotin-azide reacted E. coli on streptavidin-coated magnetic beads; assay type: cell-based; conditions: biotin-azide 100 μM, M280 Dynabeads 1 hour
Source text: (§1) FIG. 6: Capture via unnatural amino acid metabolic labeling of live gram negative (E. coli) and gram positive (L. innocua) bacteria.
(§2) E. coli and L. innocua cells metabolically labeled by HPG were further investigated to determine if they could be captured on a surface via the incorporated amino acid analogue.

L. innocua = test: Capture of HPG-labeled, biotin-azide reacted L. innocua on streptavidin-coated magnetic beads; assay type: cell-based, Listeria innocua; conditions: biotin-azide 100 μM, M280 Dynabeads 1 hour
Source text: as §1, §2

K12 E. coli = test: Immunocapture with anti-E. coli antibody beads and HPG metabolic labeling of K12 E. coli; assay type: cell-based; conditions: 30 minutes in M9 media, anti-E. coli antibody beads, Alexa488-azide
Method: FIG. 11: Metabolic label incorporation, immunocapture and fluorescence identification of live K12 strain E. coli. […] M280 streptavidin-coated magnetic beads treated with PBS (“Untreated”) or PBS containing biotin-tagged Anti-E. coli antibody were then added to the culture for 1 hour before the beads were washed in PBS and reacted with Alexa488-azide to fluorescently label surface proteins. Fluorescence levels are adjusted above background detected for cells grown in the presence of methionine.
Metabolic labeling is compatible with strain-specific immunocapture using magnetic beads coated with antibodies directed to specific bacteria. This method has the potential to concentrate specific strains of bacteria from food or water samples, while simultaneously allowing bacteria to acquire the functionalized biomolecular precursor and incorporate it in target biomolecules. Captured bacteria are then identified as living or dead by a subsequent bioorthogonal reaction and detection by fluorescence microscopy. […] M280 magnetic beads treated with PBS or biotin-tagged anti-E. coli antibody were co-incubated with the E. coli. Bacteria/bead aggregates were washed in PBS, then reacted with Alexa488-azide to fluorescently identify living bacteria captured on the M280 magnetic beads.

| SMILES | dual metabolic label incorporation (BL21 E. coli [1]) | incorporation into LPS molecules [2] | contact time after which metabolic label incorporation is detected [3] [min] | fluorescence labeling after reaction with Alexa488-azide [3] | fluorescence labeling after reaction with Alexa488-azide [4] | capture on streptavidin coated beads via incorporated HPG (BL21 E. coli [5]) | capture on streptavidin coated beads via incorporated HPG (L. innocua) | identification of captured bacteria as living by fluorescence (K12 E. coli) |
| --- | --- | --- | --- | --- | --- | --- | --- | --- |
| [N-]=[N+]=NC[C@@H](O)C1OC(O)(C(=O)O)C[C@@H](O)[C@H]1O (stereo partly drawn) [KDO-azide] | capable of incorporating both |  |  |  |  |  |  |  |
| C#CCCC(=O)NC[C@@H](O)C1OC(O)(C(=O)O)C[C@@H](O)[C@H]1O (stereo partly drawn) [KDO-alkyne] |  | capable of incorporating KDO-alkyne into LPS molecules |  |  |  |  |  |  |
| C#CCCC(N)C(=O)O (stereo not drawn) [HPG, homopropargylglycine] | capable of incorporating both |  | 30 | fluorescently labeled | labeled efficiently | multiple E. coli and L. innocua cells bound to the streptavidin coated beads | multiple E. coli and L. innocua cells bound to the streptavidin coated beads | identified as being alive |
